# Data published in patent US20050119332A1, “Substituted thiophene compounds as modulators of protein tyrosine phosphatases (PTPases)” (priority 1998, published 2005).
# Test system: not given
# Assay: not given
# Conditions: not given
row,SMILES,melting point
1,"COc1ccc(Oc2ccc(-c3cc(NC(=O)C(=O)O)c(C(=O)O)s3)cc2)cc1 (hydrate or solvate) [Example 14, 5-(4-(4-Methoxy-phenoxy)-phenyl)-3-(oxalyl-amino)-thiophene-2-carboxylic acid]",215 °C (dec.)
2,"O=C(O)C(=O)Nc1scc(C2CCCCC2)c1C(=O)O (hydrate or solvate) [Example 3, 4-Cyclohexyl-2-(oxalyl-amino)-thiophene-3-carboxylic acid]",> 250 °C
3,"O=C(O)C(=O)Nc1scc(-c2ccccc2)c1C(=O)O (hydrate or solvate) [Example 4, 2-(Oxalyl-amino)-4-phenyl-thiophene-3-carboxylic acid]",196 to 198 °C
4,"O=C(CN1C(=O)c2ccccc2C1=O)NCc1cc(C(=O)O)c(NC(=O)C(=O)O)s1 [Example 41, 5-((2-(1,3-Dioxo-1.3-dihydro-isoindol-2-yl)-acetylamino)-methyl)-2-(oxalyl-amino)-thiophene-3-carboxylic acid]",243 to 244 °C (dec.)

# Results, then the molecule that gave them:
row,melting point,SMILES
1,230 to 231 °C,"O=C(O)C(=O)Nc1sc(Cc2ccccc2)cc1C(=O)O [Example 17, 2-(Oxalyl-amino)-5-(phenyl-methyl)thiophene-3-carboxylic acid]"
2,238 to 240 °C,"O=C(O)C(=O)Nc1sc(-c2ccccc2)cc1C(=O)O [Example 19, 2-(Oxalyl-amino)-5-phenyl-thiophene-3-carboxylic acid]"
3,189 to 191 °C,"O=C(O)C(=O)Nc1nn(Cc2ccccc2)cc1C(=O)O (hydrate or solvate) [Example 2, 1-Benzyl-3-(oxalyl-amino)-1H-pyrazole-4-carboxylic acid]"

# Target: T1, PTP1B (truncated form, first 321 amino acids) (Homo sapiens, UniProt P18031)
# T1 construct: a truncated form of PTP1B (corresponding to the first 321 amino acids); made in house; host or cells: E. coli
# T1 sequence (P18031 1-321): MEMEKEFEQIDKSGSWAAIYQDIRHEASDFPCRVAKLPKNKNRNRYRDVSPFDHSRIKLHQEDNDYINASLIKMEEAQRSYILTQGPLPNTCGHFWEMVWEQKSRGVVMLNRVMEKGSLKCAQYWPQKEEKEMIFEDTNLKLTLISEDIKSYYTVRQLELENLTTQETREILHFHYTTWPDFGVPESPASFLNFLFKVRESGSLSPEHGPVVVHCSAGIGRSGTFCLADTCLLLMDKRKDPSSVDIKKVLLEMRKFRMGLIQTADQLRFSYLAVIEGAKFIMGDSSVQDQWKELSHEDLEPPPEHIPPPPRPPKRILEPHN
# Assay: Inhibition of truncated PTP1B, p-nitrophenyl phosphate substrate
# Type: biochemical
# Conditions: p-nitrophenyl phosphate 0.16 to 10 mM; pH 5.5; 25° C., 60 minutes
# Description: The compounds are evaluated for biological activity with a truncated form of PTP1B (corresponding to the first 321 amino acids), which was expressed in E. coli and purified to apparent homogeneity using published procedures well-known to those skilled in the art. The enzyme reactions are carried out using standard conditions essentially as described by Burke et al. (Biochemistry 35; 15989-15996 (1996)). The assay conditions are as follows. Appropriate concentrations of the compounds of the invention are added to the reaction mixtures containing different concentrations of the substrate, p-nitrophenyl phosphate (range: 0.16 to 10 mM—final assay concentration). The buffer used was 100 mM sodium acetate pH 5.5, 50 mM sodium chloride, 0.1% (w/v) bovine serum albumin and 5 mM dithiothreitol (total volume […]). The reaction was started by addition of the enzyme and carried out in microtiter plates at 25° C. for 60 minutes. The reactions are stopped by addition of NaOH. The enzyme activity was determined by measurement of the absorbance at 405 nm with appropriate corrections for absorbance at 405 nm of the compounds and p-nitrophenyl phosphate. The data are analyzed using nonlinear regression fit to classical Michaelis Menten enzyme kinetic models. Inhibition is expressed as Ki values in μM.
row,SMILES,Ki
1,"Cc1[nH]cc(NC(=O)C(=O)O)c1C(=O)O [Example 1, 2-Methyl4-(oxalyl-amino)-1H-pyrrole-3-carboxylic acid]",200 µM
2,"O=C(O)C(=O)Nc1scc(-c2ccccc2)c1C(=O)O [Example 4, 2-(Oxalyl-amino)-4-phenyl-thiophene-3-carboxylic acid]",100 µM
